In patent publication US20090216010A1, “CRYSTALLINE CARBAPENEM COMPOUND AND PRODUCED METHOD THEREOF” (priority 2008, published 2009):
Read-outs that look alike come from different tables or passages of the source.

What was measured:
[1] = stability during storage of the solid form; type: physicochemical; conditions: new crystalline form B, compared with non-crystalline form, no data given
[2] = solid form, storage over a long period of time; prior-art forms (EP 126587A, EP 256377, US 4,888,344); cited from earlier work

## C[C@@H](O)[C@H]1C(=O)N2C(C(=O)O)=C(S[C@@H]3CN[C@H](C(=O)N(C)C)C3)[C@H](C)[C@H]12 [Compound A in a new crystalline form B, (4R,5S,6S)-3-[[(3S,5S)-5-[(dimethylamino)carbonyl]-3-pyrrolidinyl]thio]-6-[(1R)-1-hydroxyethyl]-4-methyl-7-oxo-1-azabicyclo[3.2.0]hept-2-ene-2-carboxylic acid]
[1]
  stability during storage: stable for storage
[1]; listed as crystalline carbapenem compound of the present invention
  stability during storage: much more stable than carbapenem compound in a non-crystalline form

## C[C@@H](O)[C@H]1C(=O)N2C(C(=O)O)=C(S[C@@H]3CN[C@H](C(=O)N(C)C)C3)[C@H](C)[C@H]12 [Compound A in such non-crystalline form, (4R,5S,6S)-3-[[(3S,5S)-5-[(dimethylamino)carbonyl]-3-pyrrolidinyl]thio]-6-[(1R)-1-hydroxyethyl]-4-methyl-7-oxo-1-azabicyclo[3.2.0]hept-2-ene-2-carboxylic acid]
[2]
  stability during storage: not sufficiently stable

## C[C@@H](O)[C@H]1C(=O)N2C(C(=O)O)=C(S[C@@H]3CN[C@H](C(=O)N(C)C)C3)[C@H](C)[C@H]12 [Compound A in such crystalline form A, (4R,5S,6S)-3-[[(3S,5S)-5-[(dimethylamino)carbonyl]-3-pyrrolidinyl]thio]-6-[(1R)-1-hydroxyethyl]-4-methyl-7-oxo-1-azabicyclo[3.2.0]hept-2-ene-2-carboxylic acid]
[2]
  stability during storage: much more stable than in a non-crystalline form
